Results on 1 substance are retold here after patent publication US8022036B2, “Use of thymosin alpha 1 for the treatment of immunological diseases” (Sigma-Tau Industrie Farmaceutiche Riunite S.p.A., priority 2006, dated 2011).

For assay [1], the system named is GM-DCs or FL-DCs. The assay can be described thus: Phagocytosis of Aspergillus conidia by human GM- or FL-DCs. Format: cell-based. The text has this:
GM-DCs or FL-DCs were obtained from purified CD14+ monocytes from healthy donors or transplanted patients (1 month post-HSCT) cultured in Iscove's modified medium for 7-9 days, in the presence of rGM-CSF (Schering-Plough, Milan, Italy) and rIL-4 (Peprotech, Inalco, Milan, Italy) or FLT3-L (Immunex Corporation, Seattle, Wash.) (Blood. 2004; 103:4232-4239). DC recovery was between 20-30% reduced in cultures from transplanted patients. Murine GM-DCs or FL-DCs were obtained from bone marrow cells for 7-9 days, as described (Blood. 2004; 103:4232-4239). Thymosin alpha 1 and sThymosin alpha 1 were added to the cultures at 20 ng/mL. DCs (>99% CD11c+ consisting of 90-95% CD8-, 5-10% CD8+, and 1-5% B220+ cells) were purified from spleens (spDCs) by magnetic-activated sorting using CD11c MicroBeads and MidiMacs (Miltenyi Biotech). DC populations were further separated into CD8−, CD8+ and B220+ fractions by means of CD8 or B220 MicroBeads (Miltenyi Biotech). DCs were pulsed in serum-free Iscove medium for 24 hours with live unopsonized Aspergillus conidia or Zymosan from Saccharomyces cerevisiae (Sigma) or CpG-ODN 2006 as described.7 Phagocytosis was done as described (Blood. 2004; 103:4232-4239). Photographs were taken using a high Resolution Microscopy Color Camera AxioCam, using the AxioVision Software Rel. 3.1 (Carl Zeiss, Milan, Italy).
(B) Phagocytosis of conidia by GM- or FL-DCs exposed (+) or not (−) to Thymosin alpha 1 from seven recipients of Tcell depleted haploidentical HSCT. The data are the means±SE and expressed as % internalization (numbers within figures). (*) P<0.05, Thymosin alpha 1-treated versus untreated cells.

The test system of assay [2] is human non-small cell lung cancer (NSCLC) cells. Conditions: subcutaneous administration, nude mice; cited from earlier work.

No end group written: not given here.

Take “Thymosin alpha 1: naturally occurring thymic peptide; supplied as purified, endotoxin-free sterile lyophilized acetylated polypeptide from SciClone Pharmaceuticals (Ac-SDAAVDTSSEITTKDLKEKKEVVEEAEN; UniProt P06454 2-29, looked up)”: in assay [1] (patients one month after transplantation), the “phagocytosis of GM- and FL-DCs derived from patients” value was “promoted the phagocytosis”. Besides, the “phagocytosis in GM-DCs” value in assay [1] (with Thymosin alpha 1 (from 30% without)) came out at 56%. Besides, the “phagocytosis in FL-DCs” value in assay [1] (with Thymosin alpha 1 (from 32% without)) is on record as 58%. Moreover, in assay [2], the tumor volume entry is “significantly decreased tumor volume”.
